Entries after “also recorded” stand apart in the source; their conditions may differ.
Experiments:
cAMP = experiment: Cellular cAMP immunoassay in CFTR-expressing FRT cells; type: cell-based, rat; conditions: 10 μM, 10 min
Experimental: (§1) cAMP and Ca^2+ assays. FRT cells expressing wildtype CFTR were cultured in 12-well plates. After washing with PBS, cells were incubated for 10 min with compounds in the absence or presence of 90 nM forskolin and then lysed. Lysates were assayed for cAMP content using a cAMP immunoassay kit (Parameter cAMP Immunoassay Kit, R&D Systems, Minneapolis, Minn.). For cytoplasmic calcium measurements, FRT cells in 96-well black-walled microplates were loaded with Fluo-4 NW (Invitrogen, Carlsbad, Calif.) and Fluo-4 fluorescence was measured with a plate reader equipped with syringe pumps and monochromators.

cytoplasmic calcium = experiment: Cytoplasmic calcium by Fluo-4 fluorescence in FRT cells; type: cell-based, rat; conditions: 10 μM; for inhibition of the ATP-stimulated elevation in cytoplasmic calcium: 100 μM ATP
Experimental: as §1

[1] = tested on: closed mid-jejunal loops of cystic fibrosis mice; experiment: In vivo intestinal fluid absorption in closed mid-jejunal loops of CF mice; set-up: species or system mouse; conditions: 30 min
Experimental: Mice (wildtype or CF) were given access to 5% dextrose water but not solid food for 24 h before experiments. Mice were anesthetized with isoflurane and body temperature was maintained during surgery at 36-38° C. using a heating pad. A small abdominal incision was made to expose the small intestine, and closed mid-jejunal loops (length 2-3 cm) were isolated by sutures. Loops were injected with 100 μL vehicle alone or 100 μg CFTRact-J027 in vehicle. The abdominal incision was closed with sutures, and mice were allowed to recover from anesthesia. Intestinal loops were removed at 90 min and loop length and weight were measured to quantify fluid secretion. Intestinal absorption was measured in CF mice (to prevent secretion) as described above, except that the loops were removed at 0 or 30 min. Absorption was calculated as 1−(loop weight at 0 min−loop weight at 30 min)/loop weight at 0 min.
In vivo intestinal secretion and absorption. Mice (wildtype or CF) were given access to 5% dextrose water but not solid food for 24 h before experiments. […] Intestinal loops were removed at 90 min and loop length and weight were measured to quantify fluid secretion. Intestinal absorption was measured in CF mice (to prevent secretion) as described above, except that the loops were removed at 0 or 30 min. Absorption was calculated as 1−(loop weight at 0 min−loop weight at 30 min)/loop weight at 0 min.

[2] = Pharmacokinetics in mice (plasma LC/MS); type: in vivo, mouse
Experimental: (§2) All animal experiments were approved by UCSF Institutional Animal Care and Use Committee. Female CD1 mice were treated with 10 mg/kg CFTRact-J027 (saline containing 5% DMSO and 10% Kolliphor HS 15) either intraperitoneally (ip) or orally. Blood was collected at 15, 30, 60, 150, 240 and 360 min after treatment by orbital puncture and centrifuged at 5000 rpm for 15 min to separate plasma. Plasma samples (60 μL) were mixed with 300 μL acetonitrile and centrifuged at 13000 rpm for 20 min, and 90 μL of the supernatant was used for LC/MS. The solvent system consisted of a linear gradient from 5 to 95% acetonitrile over 16 min (0.2 ml/min flow). Mass spectra was acquired on a mass spectrometer (Waters 2695 and Micromass ZQ) using electrospray (+) ionization, mass ranging from 100 to 1500 Da, cone voltage 40 V. Calibration standards were prepared in plasma from untreated mice to which known amounts of CFTRact-J027 were added.
as §2, with “Pharmacokinetics. All” for “All”

## CCN(CC)c1nc(Nc2ccc3ncsc3c2)nc(OC(C(F)(F)F)C(F)(F)F)n1 [6k, N′-(1,3-Benzothiazol-6-yl)-N,N-diethyl-6-[(1,1,1,3,3,3-hexafluoropropan-2-yl)oxy]-1,3,5-triazine-2,4-diamine]
cAMP
  cellular cAMP: did not elevate cellular cAMP
Cytoplasmic calcium
  increase of cytoplasmic calcium: did not
  inhibition of the ATP-stimulated elevation in cytoplasmic calcium: did not

## Nc1ccc([N+](=O)[O-])cc1-c1nc2ccccc2n(Cc2ccccc2)c1=O [CFTRact-J027, 3-(2-amino-5-nitrophenyl)-1-benzylquinoxalin-2(1H)-one]
[1]
  intestinal fluid absorption: did not affect intestinal fluid absorption
[2]; 10 mg/kg ip
  serum elimination half-life: ~16 min
[2]; 10 mg/kg ip, 150 min
  serum concentration at 150 min: undetectable
[2]; 10 mg/kg oral
  bioavailability, in words: very low bioavailability; also recorded: minimal bioavailability
  blood levels: < 200 nM
  serum concentration at other time points: undetectable
[2]; 10 mg/kg oral, 30 min
  serum concentration at 30 min: 180 nM

## CNc1nc(Nc2ccccc2)nc(OCC(F)(F)C(F)F)n1 [compound 12, N-methyl-N′-phenyl-6-(2,2,3,3-tetrafluoropropoxy)-1,3,5-triazine-2,4-diamine]
cAMP
  cellular cAMP: without causing cAMP or calcium elevation; also recorded: did not elevate cellular cAMP
Cytoplasmic calcium
  increase of cytoplasmic calcium: without causing cAMP or calcium elevation; also recorded: did not
  inhibition of the ATP-stimulated elevation in cytoplasmic calcium: did not

Reference: patent US11230535B2, “CFTR regulators and methods of use thereof” (THE REGENTS OF THE UNIVERSITY OF CALIFORNIA, priority 2015, dated 2022)
